Experiments:
PHIP(2) [1] = target: T1, PHIP(2) (Homo sapiens, UniProt Q8WWQ0); assay: X-ray crystallography, crystal soak; type: binding; settings: acetylated lysine site; soak 8 mM, 24 h, 4 °C, 20% ethylene glycol, pH about 5.6; flipped and translated pose
T1 construct: second bromodomain

PHIP(2) [2] = target: T1, PHIP(2); assay: grating-coupled interferometry (waveRAPID), immobilised PHIP([…]); type: binding

| SMILES | X-ray crystallography, crystal soak (PHIP(2) [1]) | Kd (PHIP(2) [2]) |
| --- | --- | --- |
| CC1=Nc2ccc(C(=O)N3CCN(C(=O)NC(C)(C)C)CC3)cc2C1(C)C [LAT39] | long extensions towards the solvent (7FV8, LAT25 and 7FUZ, LAT39) | – |
| CNC(=O)N1CCN(C(=O)c2ccc(COc3ccccc3)o2)CC1 [LAT33] | – | 18 µM |
